Like-named read-outs stand apart in the source and are kept apart here.
Key:
LPAR1 receptor = target: T1, LPAR1 receptor (Homo sapiens, UniProt Q92633); experiment: LPAR1 in vitro biological activity evaluation 2: HTRF cAMP kit (LANCE Ultra cAMP Kit) assay in CHO stable transfected cell line expressing the LPAR1 receptor; type: cell-based; conditions: Table 2, read-out: LPAR1 inhibitory activity IC50
T1 construct: expressed in transfected cells
Procedure: The inhibitory effects of the compounds of the present disclosure on the LPAR1 receptor were determined using a Chinese hamster ovary (CHO) stable transfected cell line expressing the LPAR1 receptor, through the HTRF cAMP kit (LANCE® Ultra cAMP Kit).
The CHO cell line expressing the LPAR1 receptor was cultured in F-12 medium (Gibco, 117650054) containing 10% fetal bovine serum (FBS, Avantor, 76294-180) and 0.2 mg/mL hygromycin B (Solarbio, H8080-1g) at 37°C with 5% CO2. Cell passage, recovery, and cryopreservation were performed according to conventional methods. The stable transfected cell line was cultured to 80% confluence, digested with trypsin to collect cells, counted, and then seeded at 5 µL/well in a 384-well plate (500 cells/5 µL). The 1× Stimulation Buffer was prepared according to the instructions of the kit (LANCE® Ultra cAMP Kit). 1 µL of the test compound solution (diluted to 10× with 1× Stimulation Buffer) was added to the corresponding experimental wells, followed by centrifugation and incubation at 37°C for 10 minutes. […] 5 µL/well of Eu-cAMP (diluted with Detection buffer) was added to the corresponding experimental wells. 5 µL/well of ULight™-anti-cAMP antibody (diluted with Detection buffer) was added to the corresponding experimental wells, followed by centrifugation and incubation at room temperature for 1 hour. After the incubation was completed, the readings at 665 nm and 620 nm under 330 nm excitation were detected using the HTS high-throughput drug screening multifunctional microplate reader (BMG, PHERAstar FSX). The IC50 values were calculated by fitting nonlinear regression (dose response - variable slope) using GraphPad Prism software.

[1] = target: hLPAR1 (human lysophosphatidic acid receptor 1, Accession No.: NM_001401.4) (Homo sapiens, UniProt Q92633); experiment: cell-based; conditions: FLIPR method, CHO-K1 cells overexpressing hLPAR1
Sequence of hLPAR1 (human lysophosphatidic acid receptor 1, Accession No.: NM_001401.4) (Q92633 whole entry): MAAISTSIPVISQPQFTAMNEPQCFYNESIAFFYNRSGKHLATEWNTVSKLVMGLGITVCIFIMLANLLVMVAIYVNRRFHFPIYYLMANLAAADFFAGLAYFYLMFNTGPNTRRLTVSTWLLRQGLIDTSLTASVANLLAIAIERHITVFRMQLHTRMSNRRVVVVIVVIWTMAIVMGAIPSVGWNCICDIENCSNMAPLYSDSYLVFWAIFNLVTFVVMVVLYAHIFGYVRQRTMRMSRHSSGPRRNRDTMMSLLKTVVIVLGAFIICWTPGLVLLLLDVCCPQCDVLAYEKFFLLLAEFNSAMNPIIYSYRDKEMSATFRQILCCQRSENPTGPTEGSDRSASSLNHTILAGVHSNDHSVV
Outline: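 Antagonist mode in CHO-K1 cells stably expressing hLPAR1, Fluo-4 loaded; compound preincubated 30 min at room temperature before 1 µM oleoyl-LPA (final) challenge.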

[2] = Pharmacokinetic study in rats (oral gavage and tail vein injection, plasma LC-MS/MS); type: in vivo; conditions: rat; for Cmax: read-out: Cmax
Outline: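 Plasma from SD rats is taken at 0.167–24 h after oral gavage or at 0.033–24 h after intravenous tail-vein dosing and assayed by LC-MS/MS. Oral animals are fasted overnight and dosed in DMSO/ethanol/PEG400/saline; IV animals receive ethanol/water/PEG400. PK parameters come from a non-compartmental model.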

[3] = Table 1, read-out: LPAR1 inhibitory activity IC50
[4] = LPAR1 inhibitory activity IC50, Table 1

T1 sequence (Q92633 whole entry): as above

IC50 (LPAR1 receptor) | IC50 [1, 3] | half-life ([2]; male, SD, iv, 1 mg/kg) | half-life ([2]; male, SD, po, 1 mg/kg) | AUC(0-t) ([2]; male, SD rats, Iv, 1 mg/kg) | Cmax ([2]; male, SD rats, Iv, 1 mg/kg) | AUC(0-t) ([2]; male, SD rats, Po, 1 mg/kg) | Cmax ([2]; male, SD rats, Po, 1 mg/kg) | Compound | IC50 [1, 4] | AUC(0-t) ([2]; SD rats, Iv, 1 mg/kg) | half-life ([2]; SD rats, Iv, 1 mg/kg) | Cmax ([2]; SD rats, Iv, 1 mg/kg) | AUC(0-t) ([2]; SD rats, Po, 3 mg/kg) | half-life ([2]; SD rats, Po, 3 mg/kg) | Cmax ([2]; SD rats, Po, 3 mg/kg)
34.4 nM | 38.1 nM | 5.24 h | 4.5 h | 5000 to 10000 ng·h/mL | 5000 to 8000 ng/mL | 5000 to 10000 ng·h/mL | 200 to 800 ng/mL | CCC[C@@H](C)OC(=O)Nc1c(-c2ccc(C#CC3(CC(=O)O)CC(OC)C3)c(C)n2)nnn1C (stereo partly drawn) [compound 278] |  |  |  |  |  |  | 
20.1 nM |  | 2.51 h | 2.41 h | 10000 to 20000 ng·h/mL | 8000 to 12000 ng/mL | 10000 to 20000 ng·h/mL | 800 to 5000 ng/mL | CCC(F)(F)[C@@H](C)OC(=O)Nc1c(C)noc1-c1ccc(C#CC2(CC(=O)O)CC(OC)C2)c(C(F)(F)F)n1 (stereo partly drawn) [compound 506] |  |  |  |  |  |  | 

The remaining lines, values behind:

Compound | IC50 (LPAR1 receptor) | IC50 [1, 3] | half-life ([2]; male, SD, iv, 1 mg/kg) | half-life ([2]; male, SD, po, 1 mg/kg) | AUC(0-t) ([2]; male, SD rats, Iv, 1 mg/kg) | Cmax ([2]; male, SD rats, Iv, 1 mg/kg) | AUC(0-t) ([2]; male, SD rats, Po, 1 mg/kg) | Cmax ([2]; male, SD rats, Po, 1 mg/kg) | IC50 [1, 4] | AUC(0-t) ([2]; SD rats, Iv, 1 mg/kg) | half-life ([2]; SD rats, Iv, 1 mg/kg) | Cmax ([2]; SD rats, Iv, 1 mg/kg) | AUC(0-t) ([2]; SD rats, Po, 3 mg/kg) | half-life ([2]; SD rats, Po, 3 mg/kg) | Cmax ([2]; SD rats, Po, 3 mg/kg)
CCC[C@@H](C)OC(=O)Nc1c(-c2ccc(C#C[C@@H]3C[C@H]3C(=O)O)c(C)n2)nnn1C (mixture of isomers) [224-B, trans-2-((2-methyl-6-(1-methyl-5-(((((R)-pentan-2-yl)oxy)carbonyl)amino)-1H-1,2,3-triazol-4-yl)pyridin-3-yl)ethynyl)cyclopropane-1-carboxylic acid] | 127 nM | 70 nM |  |  |  |  |  |  |  |  |  |  |  |  | 
Cc1nc(-c2nnn(C)c2NC(=O)O[C@H](C)CC(C)C)ccc1C#C[C@@H]1CC[C@H]1C(=O)O [compound 308] | 93.2 nM |  |  |  |  |  |  |  | 10.9 nM |  |  |  |  |  | 
CCCC[C@@H](C)OC(=O)Nc1c(-c2ccc(C#CC3(CC(=O)O)CC3)c(C)n2)nnn1C [compound 313] | 156 nM |  |  |  |  |  |  |  | 16.1 nM | 3000 to 5000 ng·h/mL | 5.12 h | 800 to 5000 ng/mL | 10000 to 20000 ng·h/mL | 5.59 h | 800 to 5000 ng/mL
